This note sets out measurements from ChEMBL document CHEMBL1144158, “Synthesis and biological properties of 2-methylene-19-nor-25-dehydro-1alpha-hydroxyvitamin D(3)-26,23-lactones--weak agonists” (Bioorg Med Chem, 2008).

Assay [1] has as its system Rattus norvegicus. Description: Effect on calcium transport in vitamin D-deficient Sprague-Dawley rat intestine assessed as ratio of serosal to mucosal calcium level at 260 pmol, ip administered 4 consecutive daily doses assessed after 24 hrs of last dose by gut sac assay. The class given is functional.
For assay [2], the system named is Rattus norvegicus. Description: Effect on calcium transport in vitamin D-deficient Sprague-Dawley rat intestine assessed as ratio of serosal to mucosal calcium level at 320 pmol, ip administered 4 consecutive daily doses assessed after 24 hrs of last dose by gut sac assay. The format is functional.
Assay [3] relates to Rattus norvegicus. Description: Effect on bone calcium mobilization in vitamin D-deficient Sprague-Dawley rat assessed as serum calcium level at 960 pmol, ip administered 4 consecutive daily doses assessed after 24 hrs of last dose by spectrometry. The class given is functional.
Assay [4] deals with Rattus norvegicus. The assay is described as follows: Effect on bone calcium mobilization in vitamin D-deficient Sprague-Dawley rat assessed as serum calcium level at 7800 pmol, ip administered 4 consecutive daily doses assessed after 24 hrs of last dose by spectrometry. The class given is functional.
In assay [5] the target is T1, Vitamin D3 receptor (Rattus norvegicus, UniProt P13053).
T1 sequence (P13053 whole entry): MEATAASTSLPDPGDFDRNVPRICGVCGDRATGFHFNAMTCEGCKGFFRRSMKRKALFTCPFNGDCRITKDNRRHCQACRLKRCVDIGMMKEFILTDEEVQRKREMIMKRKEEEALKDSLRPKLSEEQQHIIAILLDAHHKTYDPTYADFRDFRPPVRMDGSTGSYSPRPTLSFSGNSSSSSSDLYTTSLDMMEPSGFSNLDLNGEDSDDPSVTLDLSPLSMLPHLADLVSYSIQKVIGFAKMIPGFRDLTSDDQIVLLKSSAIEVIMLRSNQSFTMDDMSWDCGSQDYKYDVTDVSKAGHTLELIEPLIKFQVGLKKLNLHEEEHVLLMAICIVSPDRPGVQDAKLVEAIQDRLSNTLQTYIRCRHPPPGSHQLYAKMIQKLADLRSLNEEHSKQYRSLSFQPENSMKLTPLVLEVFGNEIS
Description: Displacement of [3H]1-alpha,25-(OH)2D3 from rat recombinant full length VDR. (Displacement assays read how much labelled ligand stays bound in the presence of the test substance.)

The test system of assay [6] is Rattus norvegicus. Description: Effect on calcium transport in vitamin D-deficient Sprague-Dawley rat intestine assessed as ratio of serosal to mucosal calcium level at 7800 pmol, ip administered 4 consecutive daily doses assessed after 24 hrs of last dose by gut sac assay. The class given is functional.
A further assay concerns HL-60. The assay is described as follows: Induction of differentiation of human HL-60 cells promyelocytes to monocytes after 4 days by NBT reduction assay. The class given is functional, cell-based. As to conditions: HL-60, 96 h.
Assay [7] has as its system Rattus norvegicus. The assay is described as follows: Effect on calcium transport in vitamin D-deficient Sprague-Dawley rat intestine assessed as ratio of serosal to mucosal calcium level at 960 pmol, ip administered 4 consecutive daily doses assessed after 24 hrs of last dose by gut sac assay. The format is functional.
Assay [8] deals with T1, Vitamin D3 receptor. The assay is described as follows: Activity at rat recombinant full length VDR expressed in rat ROS 17/2.8 cells transfected with 24-hydroxylase gene promoter assessed as transcriptional activation after 16 hrs by luciferase reporter gene assay. (In general: In a reporter assay the amount or activity of a reporter protein is the signal.)
The test system of assay [9] is Rattus norvegicus. The assay is described as follows: Effect on bone calcium mobilization in vitamin D-deficient Sprague-Dawley rat assessed as serum calcium level at 320 pmol, ip administered 4 consecutive daily doses assessed after 24 hrs of last dose by spectrometry. The format is functional.
For assay [10], the system named is Rattus norvegicus. Description: Effect on calcium transport in vitamin D-deficient Sprague-Dawley rat intestine assessed as ratio of serosal to mucosal calcium level at 2340 pmol, ip administered 4 consecutive daily doses assessed after 24 hrs of last dose by gut sac assay. The class given is functional.
In assay [11] the target is T2, Vitamin D3 receptor (Rattus norvegicus) (UniProt P13053).
T2 sequence (whole entry): T1 sequence (P13053 whole entry)
The assay is described as follows: Antagonist activity at rat recombinant VDR expressed in rat ROS 17/2.8 cells transfected with 24-hydroxylase gene promoter assessed as 1-alpha,25-(OH)2D3-induced transcriptional activation at 0.001 uM to 0.1 uM after 16 hrs by luciferase reporter gene assay. The class given is functional, cell-based.

In assay [12] the test system is Rattus norvegicus. Description: Effect on bone calcium mobilization in vitamin D-deficient Sprague-Dawley rat assessed as serum calcium level at 260 pmol, ip administered 4 consecutive daily doses assessed after 24 hrs of last dose by spectrometry. The class given is functional.
The test system of assay [13] is Rattus norvegicus. The assay is described as follows: Effect on bone calcium mobilization in vitamin D-deficient Sprague-Dawley rat assessed as serum calcium level at 2340 pmol, ip administered 4 consecutive daily doses assessed after 24 hrs of last dose by spectrometry. The format is functional.

pEC50, pKi: −log10 of the molar value. Activity calls are given as the source filed them. The rule behind the calls is not given here.

Consider `C=C1C[C@@H](C[C@@H](C)[C@H]2CC[C@H]3/C(=C/C=C4C[C@@H](O)C(=C)[C@H](O)C4)CCC[C@]23C)OC1=O`, for which the Ratio in the assay on Rattus norvegicus [1] was found to be 5.6; in the assay with Rattus norvegicus [2] it was 5.1; with Rattus norvegicus [3], 3.8; with Rattus norvegicus [4], 4; with Rattus norvegicus [6], 11; in the assay with Rattus norvegicus [7] it was 5.9. Also, the results for the Ratio with Rattus norvegicus [9] and in the assay on Rattus norvegicus [10] were 3.7 and 9.6, respectively. Besides, the pKi at Vitamin D3 receptor [5] was 8.70. The results for the negative-log EC50 (pEC50) in the assay on HL-60 and on Vitamin D3 receptor [8] were 8.70 and 7.00, respectively.

Regarding `C=C1[C@H](O)CC(=C/C=C2\CCC[C@]3(C)[C@@H]([C@H](C)/C=C/[C@@H](O)C4(C(=O)OCCCC)CC4)CC[C@@H]23)C[C@H]1O`, in [11], the result was Active.

On to `C=C1C[C@H](C[C@@H](C)[C@H]2CC[C@H]3/C(=C/C=C4C[C@@H](O)C(=C)[C@H](O)C4)CCC[C@]23C)OC1=O`, for which the Ratio was 7.6 with Rattus norvegicus [1], 4.4 with Rattus norvegicus [12], 4.2 in the assay with Rattus norvegicus [13] and 9.5 in the assay on Rattus norvegicus [10]. In addition, on Vitamin D3 receptor [5], the pKi is 9.00. Further, the negative-log EC50 (pEC50) was 8.40 in the assay on HL-60 and 8.70 at Vitamin D3 receptor [8].

The pKi is −log10 of the Ki, conventionally taken in molar units. As usually defined, the pEC50 is the EC50 on a negative log10 scale, so that one unit is a factor of ten.
